Reference: patent US9193699B2, “Apoptosis inducing compounds” (INSTITUT NATIONAL DE LA SANTE ET DE LA RECHERCHE MEDICALE …, priority 2011, dated 2015)

Tests used:
[1] = test system: Human breast tumor L226 cells; assay: Inhibition of tumor cell growth (alamar blue), L226; type: cell-based; conditions: 120 h, calculated on the basis of cell growth inhibition, day 5, alamar blue
Method: (§1) All biological experiments (Examples 2 to 9) have been performed with recommended cell line specific culture medium. For SUM149 and L226, culture medium is supplemented with 10% Fetal Calf Serum. For HME-1 and MCF-10A, culture medium is supplemented with 5% Horse Serum.
(§2) Human breast tumor L226 cells (Inflammatory Breast Cancer (IBC) of ERB-B2 subtype) were plated in a 96 well plate at 3000 cells/100 μL at 37° C. in 5% CO2. Serial dilutions of drugs (compounds 1, 3 or 4) ranging from 20 μM to 300 nM were added at day 0 and day 3. The number of viable cells was determined in triplicate at day 5 by incubating 10 μL of the alamar blue staining solution for 2 hours at 37° C. (FIG. 3).
IC50 values of compounds 1-14 for the inhibition of SUM149 and L226 tumor cells growth were measured (according to the experimental procedure of Examples 2 and 3): […]

[2] = test system: Human normal mammary epithelial HME-1 cells; assay: Effect on growth of normal cells (alamar blue), HME-1; type: cell-based; conditions: HME1, calculated on the basis of cell growth inhibition
Method: as §1
as §2, with “normal mammary epithelial HME-1” for “breast tumor L226”, “cells” for “cells (Inflammatory Breast Cancer (IBC) of ERB-B2 subtype)”, “4).” for “3).”
(§3) IC50 values of compounds 1-14 for the inhibition of MCF-10A and HME-1 normal cells growth were also measured (according to the experimental procedure of Examples 4 and 5): […]

[3] = test system: caspase-3 and caspase-7 in MCF-10A cells; assay: Caspase 3/7 activation (Caspase-Glo 3/7) in MCF-10A normal cells; type: cell-based; conditions: Homo sapiens, R=RLU at 20 μM/RLU at 0 μM, 24 h, read-out: Caspase 3/7 activation R (RLU fold increase from untreated cells)
Method: (§4) Human normal mammary epithelial MCF-10A cells were plated in a 96 well plate at 10000 cells/100 μL at 37° C. in 5% CO2. Serial dilutions of drugs (compounds 1, 3 or 4) ranging from 20 μM to 300 nM were added at day 0. Active caspase-3 and caspase-7 were measured in triplicate after 24 h treatment by incubating 50 μL of the Caspase-Glo 3/7 reagent for 60 min at 25° C. This reagent containing the proluminescent tetrapeptide sequence DEVD in a cell lysis buffer (Promega) (FIG. 9).
(§5) The calculated values R correspond to Relative Luminescence Units (RLU) fold increase from untreated cells (R=RLU at 20 μM/RLU at 0 μM).
(§6) Caspase 3/7 activation in MCF-10A and HME-1 normal cells was also measured.

[4] = test system: Human breast tumor SUM149 cells; assay: Inhibition of tumor cell growth (alamar blue), SUM149; type: cell-based; conditions: 120 h, calculated on the basis of cell growth inhibition, day 5, alamar blue, read-out: IC50 for the inhibition of SUM149 tumor cells growth
Method: as §1
as §2, with “SUM149” for “L226”, “basal” for “ERB-B2”, “Compounds” for “Serial dilutions of drugs (compounds”, “3, 4, 5, 6, 7, 8, 9, 10, 11, 12, 13, 14 at 10” for “3 or 4) ranging from 20”, “μM” for “μM to 300 nM”, “1).” for “3).”
as §2, with “SUM149” for “L226”, “cells” for “cells (Inflammatory Breast Cancer (IBC) of ERB-B2 subtype)”, “2).” for “3).”
IC50 values of compounds 1-14 for the inhibition of SUM149 and L226 tumor cells growth were measured (according to the experimental procedure of Examples 2 and 3):
Human breast tumor SUM149 cells were plated in a 96 well plate at 3000 cells/100 μL at 37° C. in 5% CO2 in recommended medium containing 10% FCS or in synthetic medium without FCS. Serial dilutions of drug (compound 4) ranging from 10 μM to 0.16 μM were added at day 0 and day 3. The number of viable cells was determined in triplicate at day 5 by incubating 10 μL of the alamar blue staining solution for 2 hours at 37° C. (FIG. 11). The […] in recommended medium containing 10% FCS was measured at 2 μM, while it was measured at 0.6 μM without FCS.

[5] = test system: caspase-3 and caspase-7 in L226 cells; assay: Caspase 3/7 activation (Caspase-Glo 3/7) in L226 tumor cells; type: cell-based; conditions: Homo sapiens, R=RLU at 20 μM/RLU at 0 μM, 24 h, read-out: Caspase 3/7 activation R (RLU fold increase from untreated cells)
Method: as §4, with “breast tumor L226” for “normal mammary epithelial MCF-10A”, “7).” for “9).”
(§7) Caspase 3/7 activation in SUM149 and L226 tumor cells was measured.
as §5

[6] = test system: caspase-3 and caspase-7 in SUM149 cells; assay: Caspase 3/7 activation (Caspase-Glo 3/7) in SUM149 tumor cells; type: cell-based; conditions: Homo sapiens, R=RLU at 20 μM/RLU at 0 μM, 24 h, read-out: Caspase 3/7 activation R (RLU fold increase from untreated cells)
Method: as §4, with “breast tumor SUM149” for “normal mammary epithelial MCF-10A”, “6).” for “9).”
as §7, §5

[7] = test system: Human normal mammary epithelial MCF-10A cells; assay: Effect on growth of normal cells (alamar blue), MCF-10A; type: cell-based; conditions: calculated on the basis of cell growth inhibition
Method: as §1
as §2, with “normal mammary epithelial MCF-10A” for “breast tumor L226”, “cells” for “cells (Inflammatory Breast Cancer (IBC) of ERB-B2 subtype)”, “5).” for “3).”
as §3

[8] = test system: Human breast tumor SUM149 cells; assay: Annexin V/7-AAD apoptosis with or without Z-VAD-FMK; type: cell-based; conditions: 2.5 to 20 μM, 48 h, with Z-VAD-FMK pan-caspases inhibitor
Method: Human breast tumor SUM149 cells were plated in dishes at a concentration of 10^6 cells/[…] Cells were treated with compound 3 or compound 4 (2.5 to 20 μM) for 48 h, with or without Z-VAD-FMK, a pan-caspases inhibitor. Cells were double stained with annexinV-FITC and 7-AAD to measure cell apoptosis.

[9] = test system: caspase-3 and caspase-7 in HME-1 cells; assay: Caspase 3/7 activation (Caspase-Glo 3/7) in HME-1 normal cells; type: cell-based; conditions: Homo sapiens, HME1, R=RLU at 20 μM/RLU at 0 μM, 24 h, read-out: Caspase 3/7 activation R (RLU fold increase from untreated cells)
Method: as §4, with “HME-1” for “MCF-10A”, “8).” for “9).”
as §5, §6

[10] = test system: tumors derived from MMTC-ErbB2/neu mice; assay: TUNEL assay of tumor apoptosis in MMTV-ErB2/Neu mice; type: in vivo; conditions: 100 mg/kg for 30 days
Method: DNA fragmentation in apoptotic cells was analyzed by the TUNEL assay (ApopTag detection kit, Millipore) as recommended by the manufacturer.
Briefly, 4 μm sections of paraffin-embedded fixed tissue from tumors derived from MMTC-ErbB2/neu mice treated with vehicle or with Compound 12, 4 or 8 (100 mg/kg) for 30 days, were deparaffined with successive histolemon and ethanol washes, then treated with 20 μg/mL proteinase K for 15 min at room temperature. Endogenous peroxidise was quenched with 3% hydrogen peroxide. […] Coloration was performed using the diaminobenzidine mixed substrate (Dako). Counterstaining was done with a solution of 1% methyl green for 5 min at room temperature. After distilled water and N-butanol washes, specimens were mounted in Pertex medium (CellPath). Observations were made using the Leica DMD108 digital microimaging device (Leica Microsystems GmbH).

| Structure (SMILES) | IC50 [1] [µM] | IC50 [2] [µM] | fold induction at 20 µM [3] | IC50 [4] [µM] | fold induction at 20 µM [5] | fold induction at 20 µM [6] | IC50 [7] [µM] | effect of Z-VAD treatment on compound induced apoptosis (Annexin V positive cells) [8] | fold induction at 20 µM [9] | percentage of cells having TdT positive nuclei in tumors [10] |
| --- | --- | --- | --- | --- | --- | --- | --- | --- | --- | --- |
| CC(C)c1ccc(S(=O)(=O)N2CCSC(C)(C)[C@@H]2C(=O)NO)cc1 [Compound 3, (3S)—N-hydroxy-4-[(4-isopropylphenyl)sulfonyl]-2,2-dimethyl-3-thiomorpholine carboxamide] | 2.5 | > 20 | 1 | 2.5 | 2.1 | 6.3 | > 20 | fully impaired | 1 | – |
| CCc1ccc(S(=O)(=O)N2CCSC(C)(C)[C@@H]2C(=O)NO)cc1 [Compound 8, (3S)—N-hydroxy-4-[(4-ethylphenyl)sulfonyl]-2,2-dimethyl-3-thiomorpholine carboxamide] | 5 | > 20 | – | 7.5 | 2.3 | 5.7 | > 20 | – | – | rare |
